Experimental data published in patent US20250186646A1, “Use of Volatile Compositions to Limit or Eliminate Perception of Fecal Malodour” (Firmenich SA, priority 2016, published 2025).

Experiments:
p-cresol = test: Reduction of perceived intensity of p-cresol by MOCs (Table 16); assay type: in vivo; settings: for p-cresol Dyn Conc: concentration at which the MOC reduces the perceived intensity of p-cresol; for p-cresol Reduction: perceived intensity of p-cresol, at the Dyn Conc
butyric acid = test: Reduction of perceived intensity of butyric acid by MOCs (Table 16); assay type: in vivo; settings: for Butyric acid Dyn Conc: concentration at which the MOC reduces the perceived intensity of butyric acid; for Butyric acid Reduction: perceived intensity of butyric acid, at the Dyn Conc
indole = test: Reduction of perceived intensity of indole by MOCs (Table 16); assay type: in vivo; settings: for Indole Dyn Conc: concentration at which the MOC reduces the perceived intensity of indole; for Indole Reduction: perceived intensity of indole, at the Dyn Conc
DMTS = test: Reduction of perceived intensity of DMTS by MOCs (Table 16); assay type: in vivo; settings: for DMTS Dyn Conc: concentration at which the MOC reduces the perceived intensity of DMTS; for DMTS Reduction: perceived intensity of DMTS, at the Dyn Conc
[1] = system: fecal malodour reconstitution; test: Olfactometer blind sensory evaluation of test and control formulations (Example 15); assay type: in vivo; design: Fecal Score / Freshness Score / Pleasantness Score: scale not given here; settings: for Fecal Score: in combination with fecal reconstitution; for Fecal Score left: relative to fecal reconstitution alone (100)
Experimental: (§1) The performance of a test formulation containing LILYFLORE, Violet AT and Isoraldeine to counteract the fecal malodour perceived from a fecal malodour reconstitution was tested. The amount of each single ingredient in the test formulation was the same as the corresponding concentration of the ingredient that was incorporated into the Floral compositions. Separate control formulations were also included, comprising LILYFLORE, Violet AT and Isoraldeine separately, at the same concentration as each single ingredient in the test formulation. The sensory evaluation was blind, and performed using olfactometers and a set of more than 30 participants evaluating blind. In parallel, the headspace concentration of the ingredients from the test and three control formulations was determined.
as §1, with “of another” for “of a”, “and dihydrolinalol” for “and Isoraldeine”, “tested.” for “tested. The amount of each single ingredient in the test formulation was the same as the corresponding concentration of the ingredient that was incorporated into the Floral compositions.”
The performance of another test formulation containing LILYFLORE, isoraldeine, Violet AT and dihydrolinalol to counteract the fecal malodour perceived from a fecal malodour reconstitution was tested. Separate control formulations were also included, comprising LILYFLORE, Violet AT, isoraldeine and dihydrolinalol separately, at the same concentration as each single ingredient in the test formulation. The sensory evaluation was blind, and performed using olfactometers and a set of more than 30 participants evaluating blind. In parallel, the headspace concentration of the ingredients from the test and […] control formulations was determined.

[2] = Olfactory detection thresholds (ODT); settings: gas phase
butyric acid receptors = test: Ex vivo live neuron assay antagonism screening; assay type: cell-based, mice; settings: butyric acid malodour target
Description: In the ex vivo live neuron assay, olfactory sensory neurons (OSNs) are extracted from the olfactory epithelium of mice and can be tested for responses to sequentially delivered stimuli, where responses are detected through live-cell calcium-imaging microscopy. It has been established through prior research in the field that the vast majority of extracted OSNs express 1 out of the approximately 1200 odourant receptors (ORs) present in the genome of a mouse, such that in our samples of extracted OSNs, the majority of the 1200 ORs should have been represented in at least one OSN. Since the responses of the OSNs to the delivered stimuli are entirely driven by the expressed OR, the OSNs selectively detect and collectively encode the identity and intensity of odourants. By stimulating the OSNs with MO molecules and measuring the response of each OSN, the subset in which a response is induced is those that detect and therefore presumably encode the MO. By subsequently delivering a mixture of MO and a candidate antagonist to the same cells, the degree of suppression of signal in each MO-responsive OSN can be determined (“level of inhibition”). […] In addition, the proportion of MO-responsive OSNs displaying low, medium and high inhibition was calculated. […]

Compound: C/C=C/C(=O)C1C(C)=CCCC1(C)C (racemic) [Alpha damascone, (+−)-(2E)-1-(2,6,6-trimethyl-2-cyclohexen-1-yl)-2-buten-1-one]
- p-cresol Dyn Conc (p-cresol): 0.0413 µg/L
- p-cresol Reduction (p-cresol): 62
- Butyric acid Dyn Conc (butyric acid): 0.041 µg/L
- Butyric acid Reduction (butyric acid): 43

Compound: CC(C)=CCCC(C)CCO (racemic) [Citronellol BJ, (+−)-3,7-DIMETHYL-6-OCTEN-1-OL]
- Indole Dyn Conc (indole): 0.252 µg/L
- Indole Reduction (indole): 65
- p-cresol Dyn Conc (p-cresol): 0.11 µg/L
- p-cresol Reduction (p-cresol): 61
- Butyric acid Dyn Conc (butyric acid): 0.0947 µg/L
- Butyric acid Reduction (butyric acid): 55

Compound: CCCCCC1CCCC1=O (racemic) [Delphone, (+−)-2-pentylcyclopentanone]
- DMTS Dyn Conc (DMTS): 0.046 µg/L
- DMTS Reduction (DMTS): 67
- p-cresol Dyn Conc (p-cresol): 0.0488 µg/L
- p-cresol Reduction (p-cresol): 64

Compound: C=CC(C)(O)CCCC(C)C (racemic) [Dihydrolinalol, (+−)-3,7-DIMETHYL-1-OCTEN-3-OL]
- Butyric acid Dyn Conc (butyric acid): 0.76 µg/L
- Butyric acid Reduction (butyric acid): 64
- Fecal % Redn ([1]; Table 19): 35%
- Freshness Score ([1]; Table 19): 3.9
- Pleasantness Score ([1]; Table 19): 3.5
- Fecal Score ([1]; Table 19): 5.6
- Fecal Score left ([1]; Table 19): 65
- Fecal % Redn ([1]; Table 20): 30%
- Freshness Score ([1]; Table 20): 3.2
- Pleasantness Score ([1]; Table 20): 3.2
- Fecal Score ([1]; Table 20): 6.1
- Fecal Score left ([1]; Table 20): 70
- olfactory detection thresholds (ODT) [2]: 0.00137 µg/L
- antagonism of malodour receptors (butyric acid receptors): antagonist of butyric acid receptors

Compound: Cc1ccc2c(c1)CC(C)(CO)C2 (racemic) [LILYFLORE, (+−)-2,5-DIMETHYL-2-INDANMETHANOL]
- Indole Dyn Conc (indole): 0.206 µg/L
- Indole Reduction (indole): 81
- DMTS Dyn Conc (DMTS): 0.126 µg/L
- DMTS Reduction (DMTS): 64
- p-cresol Dyn Conc (p-cresol): 0.22 µg/L
- p-cresol Reduction (p-cresol): 76
- Butyric acid Dyn Conc (butyric acid): 0.0351 µg/L
- Butyric acid Reduction (butyric acid): 58
- Fecal % Red ([1]; Table 18): 56%
- Freshness Score ([1]; Table 18): 4.4
- Pleasantness Score ([1]; Table 18): 4.8
- Fecal Score ([1]; Table 18): 3.8
- Fecal Score left ([1]; Table 18): 44
- Fecal % Redn ([1]; Table 19): 45%
- Freshness Score ([1]; Table 19): 4.0
- Pleasantness Score ([1]; Table 19): 4.1
- Fecal Score ([1]; Table 19): 4.7
- Fecal Score left ([1]; Table 19): 55
- Fecal % Redn ([1]; Table 20): 45%
- Freshness Score ([1]; Table 20): 3.9
- Pleasantness Score ([1]; Table 20): 3.8
- Fecal Score ([1]; Table 20): 4.8
- Fecal Score left ([1]; Table 20): 55
- olfactory detection thresholds (ODT) [2]: 0.000128 µg/L

Compound: CC(=O)OC(c1ccccc1)C(Cl)(Cl)Cl (racemic) [Rosinol Cryst, (+−)-2,2,2-TRICHLORO-1-PHENYLETHYL ACETATE]
- DMTS Dyn Conc (DMTS): 0.659 µg/L
- DMTS Reduction (DMTS): 38

Compound: CC(=O)OCc1ccccc1 [Benzyl acetate, Benzyl Acetate]
- Butyric acid Dyn Conc (butyric acid): 1.31 µg/L
- Butyric acid Reduction (butyric acid): 54

Compound: CCCCCC/C(C=O)=C\c1ccccc1 [Hexylcinnamic aldehyde, (2E)-2-benzylideneoctanal]
- p-cresol Dyn Conc (p-cresol): 1.34 µg/L
- p-cresol Reduction (p-cresol): 39
- Butyric acid Dyn Conc (butyric acid): 1.34 µg/L
- Butyric acid Reduction (butyric acid): 26

Compound: OCCc1ccccc1 [Phenylethyl alcohol, 2-PHENYLETHANOL]
- Indole Dyn Conc (indole): 0.538 µg/L
- Indole Reduction (indole): 46
- DMTS Dyn Conc (DMTS): 1.03 µg/L
- DMTS Reduction (DMTS): 55
- p-cresol Dyn Conc (p-cresol): 0.318 µg/L
- p-cresol Reduction (p-cresol): 49

Compound: (1RS,2RS)-2,4-dimethyl-3-cyclohexene-1-carbaldehyde (A) + (1RS,2SR)-2,4-dimethyl-3-cyclohexene-1-carbaldehyde (B) [Zestover]
- Indole Dyn Conc (indole): 0.348 µg/L
- Indole Reduction (indole): 82
- DMTS Dyn Conc (DMTS): 0.38 µg/L
- DMTS Reduction (DMTS): 78
- p-cresol Dyn Conc (p-cresol): 0.0607 µg/L
- p-cresol Reduction (p-cresol): 66
- Butyric acid Dyn Conc (butyric acid): 0.0809 µg/L
- Butyric acid Reduction (butyric acid): 68

Compound: (+−)-(3E)-3-methyl-4-(2,6,6-trimethyl-2-cyclohexen-1-yl)-3-buten-2-one (A) + (+−)-(1E)-1-(2,6,6-trimethyl-2-cyclohexen-1-yl)-1-penten-3-one (B) [Isoraldeine 70P]
- Indole Dyn Conc (indole): 0.542 µg/L
- Indole Reduction (indole): 79
- DMTS Dyn Conc (DMTS): 0.216 µg/L
- DMTS Reduction (DMTS): 69
- p-cresol Dyn Conc (p-cresol): 0.0674 µg/L
- p-cresol Reduction (p-cresol): 49
- Butyric acid Dyn Conc (butyric acid): 0.0674 µg/L
- Butyric acid Reduction (butyric acid): 25
- Fecal % Red ([1]; Table 18): 58%
- Freshness Score ([1]; Table 18): 4.8
- Pleasantness Score ([1]; Table 18): 5.1
- Fecal Score ([1]; Table 18): 3.6
- Fecal Score left ([1]; Table 18): 42
- Fecal % Redn ([1]; Table 20): 49%
- Freshness Score ([1]; Table 20): 4.6
- Pleasantness Score ([1]; Table 20): 4.5
- Fecal Score ([1]; Table 20): 4.4
- Fecal Score left ([1]; Table 20): 51
- olfactory detection thresholds (ODT) [2]: 0.000192 µg/L

Compound: (+−)-(3E)-4-(2,6,6-trimethyl-2-cyclohexen-1-yl)-3-buten-2-one (A) + (3E)-4-(2,6,6-trimethyl-1-cyclohexen-1-yl)-3-buten-2-one (B) [Violet AT]
- Indole Dyn Conc (indole): 0.133 µg/L
- Indole Reduction (indole): 72
- DMTS Dyn Conc (DMTS): 0.151 µg/L
- DMTS Reduction (DMTS): 81
- p-cresol Dyn Conc (p-cresol): 0.133 µg/L
- p-cresol Reduction (p-cresol): 85
- Butyric acid Dyn Conc (butyric acid): 0.123 µg/L
- Butyric acid Reduction (butyric acid): 55
- Fecal % Red ([1]; Table 18): 58%
- Freshness Score ([1]; Table 18): 4.7
- Pleasantness Score ([1]; Table 18): 5.0
- Fecal Score ([1]; Table 18): 3.6
- Fecal Score left ([1]; Table 18): 42
- Fecal % Redn ([1]; Table 19): 53%
- Freshness Score ([1]; Table 19): 4.5
- Pleasantness Score ([1]; Table 19): 4.8
- Fecal Score ([1]; Table 19): 4.1
- Fecal Score left ([1]; Table 19): 47
- Fecal % Redn ([1]; Table 20): 44%
- Freshness Score ([1]; Table 20): 4.1
- Pleasantness Score ([1]; Table 20): 4.2
- Fecal Score ([1]; Table 20): 4.9
- Fecal Score left ([1]; Table 20): 56
- olfactory detection thresholds (ODT) [2]: 0.000508 µg/L
